Results from the NIST ThermoML archive (doi:10.1016/j.fluid.2013.06.041).
Numbers after ± are expanded uncertainties.

Test: xn = mol fraction of the nth substance listed
Settings: 101 kPa, Liquid, Small sample (50 mg) DSC

CC(O)CO (centres undefined) [1,2-propanediol] + O
excess molar heat capacity [J/K/mol]
Settings	283.15 K	293.15 K	298.15 K	303.15 K	313.15 K
x1 = 0.02216	1.78 ± 0.43	2.01 ± 0.43	1.98 ± 0.43	1.95 ± 0.43	1.84 ± 0.43
x1 = 0.05617	3.3 ± 0.44	3.57 ± 0.44	3.62 ± 0.44	3.63 ± 0.44	3.59 ± 0.44
x1 = 0.07845	4.67 ± 0.45	5.18 ± 0.45	5.29 ± 0.45	5.35 ± 0.46	5.39 ± 0.46
x1 = 0.1224	5.38 ± 0.46	6.18 ± 0.46	6.43 ± 0.46	6.6 ± 0.46	6.81 ± 0.47
x1 = 0.1545	5.22 ± 0.45	6.19 ± 0.46	6.5 ± 0.46	6.73 ± 0.46	6.96 ± 0.47
x1 = 0.1667	4.94 ± 0.45	6.02 ± 0.46	6.37 ± 0.46	6.62 ± 0.46	6.95 ± 0.47
x1 = 0.1873	4.62 ± 0.45	5.79 ± 0.46	6.18 ± 0.46	6.49 ± 0.46	6.9 ± 0.47
x1 = 0.2272	4.15 ± 0.45	5.41 ± 0.46	5.86 ± 0.46	6.21 ± 0.46	6.72 ± 0.46
x1 = 0.2878	2.67 ± 0.44	4.01 ± 0.45	4.52 ± 0.45	4.94 ± 0.45	5.62 ± 0.46
x1 = 0.3965	1.6 ± 0.43	3.11 ± 0.44	3.65 ± 0.44	4.08 ± 0.45	4.77 ± 0.45
x1 = 0.4863	0.67 ± 0.43	1.88 ± 0.43	2.34 ± 0.44	2.75 ± 0.44	3.53 ± 0.44
x1 = 0.5274	0.69 ± 0.43	1.74 ± 0.43	2.17 ± 0.44	2.58 ± 0.44	3.35 ± 0.44
x1 = 0.6388	0.77 ± 0.43	1.63 ± 0.43	1.97 ± 0.43	2.3 ± 0.44	3.01 ± 0.44
x1 = 0.753	0.72 ± 0.43	1.32 ± 0.43	1.55 ± 0.43	1.76 ± 0.43	2.18 ± 0.44
x1 = 0.7757	0.8 ± 0.43	1.04 ± 0.43	1.24 ± 0.43	1.47 ± 0.43	1.96 ± 0.43
x1 = 0.9045	0.26 ± 0.43	0.38 ± 0.43	0.11 ± 0.42	0.14 ± 0.42	0.32 ± 0.43
x1 = 0.9677	0.09 ± 0.42	–	–	–	–

OCCCCO [1,4-butanediol] + O
excess molar heat capacity [J/K/mol]
Settings	283.15 K	293.15 K	298.15 K	303.15 K	313.15 K
x1 = 0.00538	1.24 ± 0.43	1.14 ± 0.43	1.06 ± 0.43	1.01 ± 0.43	1.1 ± 0.43
x1 = 0.01312	2.19 ± 0.44	2.16 ± 0.44	2.08 ± 0.44	2.01 ± 0.44	1.92 ± 0.43
x1 = 0.02505	3.41 ± 0.44	3.49 ± 0.44	3.5 ± 0.44	3.52 ± 0.44	3.58 ± 0.44
x1 = 0.02518	3.17 ± 0.44	3.34 ± 0.44	3.32 ± 0.44	3.28 ± 0.44	3.33 ± 0.44
x1 = 0.03528	4.45 ± 0.45	4.6 ± 0.45	4.58 ± 0.45	4.53 ± 0.45	4.52 ± 0.45
x1 = 0.04842	5.39 ± 0.46	5.61 ± 0.46	5.64 ± 0.46	5.65 ± 0.46	5.67 ± 0.46
x1 = 0.0574	6.22 ± 0.46	6.53 ± 0.46	6.59 ± 0.46	6.62 ± 0.46	6.68 ± 0.46
x1 = 0.07589	6.43 ± 0.46	7.15 ± 0.47	7.34 ± 0.47	7.46 ± 0.47	7.6 ± 0.47
x1 = 0.08236	6.7 ± 0.46	7.51 ± 0.47	7.71 ± 0.47	7.85 ± 0.47	8.09 ± 0.47
x1 = 0.09032	6.66 ± 0.46	7.65 ± 0.47	7.89 ± 0.47	8.04 ± 0.47	8.25 ± 0.48
x1 = 0.1005	6.94 ± 0.47	8.03 ± 0.47	8.38 ± 0.48	8.63 ± 0.48	8.9 ± 0.48
x1 = 0.1396	6.87 ± 0.47	8.33 ± 0.48	8.81 ± 0.48	9.17 ± 0.48	9.74 ± 0.49
x1 = 0.1403	6.85 ± 0.47	8.37 ± 0.48	8.87 ± 0.48	9.24 ± 0.48	9.77 ± 0.49
x1 = 0.1868	6.33 ± 0.46	8.24 ± 0.48	9.84 ± 0.49	10.39 ± 0.49	11.21 ± 0.5
x1 = 0.2961	5.63 ± 0.46	7.75 ± 0.47	8.91 ± 0.48	9.42 ± 0.49	10.66 ± 0.5
x1 = 0.3972	4.75 ± 0.45	6.83 ± 0.47	7.7 ± 0.47	–	10.31 ± 0.49
x1 = 0.4965	4.04 ± 0.45	5.92 ± 0.46	6.8 ± 0.47	7.63 ± 0.47	9.13 ± 0.48
x1 = 0.5659	3.29 ± 0.44	5.08 ± 0.45	5.88 ± 0.46	6.64 ± 0.46	8.11 ± 0.48
x1 = 0.7004	2.95 ± 0.44	4.32 ± 0.45	4.96 ± 0.45	5.57 ± 0.46	6.8 ± 0.47
x1 = 0.7964	2.92 ± 0.44	3.47 ± 0.44	3.89 ± 0.45	4.33 ± 0.45	5.14 ± 0.45
x1 = 0.8873	1.38 ± 0.43	2.21 ± 0.44	2.5 ± 0.44	2.79 ± 0.44	3.63 ± 0.44
x1 = 0.9398	0.81 ± 0.43	1.14 ± 0.43	1.34 ± 0.43	1.56 ± 0.43	2.03 ± 0.43

OCCCO [propan-1,3-diol] + O
excess molar heat capacity [J/K/mol]
Settings	283.15 K	293.15 K	298.15 K	303.15 K	313.15 K
x1 = 0.02483	1.28 ± 0.43	1.4 ± 0.43	1.43 ± 0.43	1.44 ± 0.43	1.46 ± 0.43
x1 = 0.03693	1.89 ± 0.43	2.08 ± 0.44	2.13 ± 0.44	2.16 ± 0.44	2.26 ± 0.44
x1 = 0.05016	2.35 ± 0.44	2.72 ± 0.44	2.83 ± 0.44	2.9 ± 0.44	2.99 ± 0.44
x1 = 0.07515	2.54 ± 0.44	3.22 ± 0.44	3.44 ± 0.44	3.59 ± 0.44	3.8 ± 0.45
x1 = 0.1401	2.24 ± 0.44	3.61 ± 0.44	4.11 ± 0.45	4.52 ± 0.45	5.08 ± 0.45
x1 = 0.1504	2.2 ± 0.44	3.67 ± 0.44	4.21 ± 0.45	4.64 ± 0.45	5.27 ± 0.45
x1 = 0.299	1.59 ± 0.43	3.18 ± 0.44	3.84 ± 0.45	4.43 ± 0.45	5.44 ± 0.46
x1 = 0.3982	1.31 ± 0.43	2.66 ± 0.44	3.28 ± 0.44	3.85 ± 0.45	4.81 ± 0.45
x1 = 0.4976	1.26 ± 0.43	2.34 ± 0.44	2.82 ± 0.44	3.25 ± 0.44	4.02 ± 0.45
x1 = 0.5955	1.15 ± 0.43	1.92 ± 0.43	2.33 ± 0.44	2.74 ± 0.44	3.48 ± 0.44
x1 = 0.7025	–	1.71 ± 0.43	1.95 ± 0.43	2.2 ± 0.44	2.64 ± 0.44
x1 = 0.7902	0.98 ± 0.43	1.19 ± 0.43	1.3 ± 0.43	1.4 ± 0.43	1.49 ± 0.43
x1 = 0.9455	0.48 ± 0.43	0.53 ± 0.43	0.58 ± 0.43	0.61 ± 0.43	0.55 ± 0.43
